Results on 7 molecules are retold here after ChEMBL document CHEMBL1201862, “PubChem BioAssay data set” (2004).

As usually defined, the AC50 is the concentration at which the activity in the assay is half-maximal. As usually defined, the EC50 is the concentration at which the effect is half-maximal.

One assay deals with T1, Caspase-3 (Homo sapiens, UniProt P42574).
T1 sequence (P42574 whole entry): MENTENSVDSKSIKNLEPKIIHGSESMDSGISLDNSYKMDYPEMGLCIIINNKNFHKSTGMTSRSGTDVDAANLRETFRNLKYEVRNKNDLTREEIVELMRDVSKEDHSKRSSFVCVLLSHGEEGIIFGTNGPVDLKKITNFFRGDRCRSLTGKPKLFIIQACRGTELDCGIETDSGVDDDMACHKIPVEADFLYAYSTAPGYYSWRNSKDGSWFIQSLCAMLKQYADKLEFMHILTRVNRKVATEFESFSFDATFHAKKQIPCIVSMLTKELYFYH
The class given is functional.

Assay [1] addresses T2, Sentrin-specific protease 6 (Homo sapiens, UniProt Q9GZR1).
T2 sequence (Q9GZR1 whole entry): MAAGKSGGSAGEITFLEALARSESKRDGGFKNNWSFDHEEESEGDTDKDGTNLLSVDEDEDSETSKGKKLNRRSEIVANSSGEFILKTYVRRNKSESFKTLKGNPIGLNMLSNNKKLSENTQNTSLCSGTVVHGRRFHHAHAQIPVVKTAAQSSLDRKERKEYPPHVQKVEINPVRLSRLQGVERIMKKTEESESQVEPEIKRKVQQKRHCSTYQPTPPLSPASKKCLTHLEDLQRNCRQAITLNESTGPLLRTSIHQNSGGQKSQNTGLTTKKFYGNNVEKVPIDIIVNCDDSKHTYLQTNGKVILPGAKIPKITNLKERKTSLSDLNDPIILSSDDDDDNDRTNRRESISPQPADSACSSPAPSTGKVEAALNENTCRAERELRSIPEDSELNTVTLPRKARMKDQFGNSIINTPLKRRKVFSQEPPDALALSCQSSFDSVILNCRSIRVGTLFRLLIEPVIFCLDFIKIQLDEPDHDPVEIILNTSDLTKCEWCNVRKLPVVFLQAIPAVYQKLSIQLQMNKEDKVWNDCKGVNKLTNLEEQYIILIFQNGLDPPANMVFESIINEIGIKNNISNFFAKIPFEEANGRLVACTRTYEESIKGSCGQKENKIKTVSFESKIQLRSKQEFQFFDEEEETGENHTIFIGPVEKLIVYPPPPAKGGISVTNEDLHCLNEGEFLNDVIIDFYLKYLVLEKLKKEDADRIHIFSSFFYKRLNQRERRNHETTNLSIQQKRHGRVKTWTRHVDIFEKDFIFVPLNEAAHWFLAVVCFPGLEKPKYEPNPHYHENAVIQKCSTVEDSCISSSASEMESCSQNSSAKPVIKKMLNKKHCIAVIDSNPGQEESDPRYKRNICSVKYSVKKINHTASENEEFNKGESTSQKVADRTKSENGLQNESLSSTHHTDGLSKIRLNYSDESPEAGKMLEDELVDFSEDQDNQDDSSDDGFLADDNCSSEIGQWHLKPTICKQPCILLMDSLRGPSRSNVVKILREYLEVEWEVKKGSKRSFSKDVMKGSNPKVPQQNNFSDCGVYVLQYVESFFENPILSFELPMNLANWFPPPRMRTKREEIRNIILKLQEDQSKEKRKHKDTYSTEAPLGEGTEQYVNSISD
In kind it is functional.

The next assay deals with T3, Caspase-6 (Homo sapiens, UniProt P55212).
T3 sequence (P55212 whole entry): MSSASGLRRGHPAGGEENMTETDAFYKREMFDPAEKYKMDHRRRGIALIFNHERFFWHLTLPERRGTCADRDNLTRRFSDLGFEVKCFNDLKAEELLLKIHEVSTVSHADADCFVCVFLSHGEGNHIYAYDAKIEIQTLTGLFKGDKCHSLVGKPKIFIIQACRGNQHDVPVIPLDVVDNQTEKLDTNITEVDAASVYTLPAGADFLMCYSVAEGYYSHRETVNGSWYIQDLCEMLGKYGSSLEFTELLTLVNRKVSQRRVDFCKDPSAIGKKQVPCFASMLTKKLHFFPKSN
Put plainly: inhibition of CASP6 peptide cleavage – biochemical, VEID-R110 fluorescence, cherry-pick, dose response (AID 720632).

Another assay relates to A-375. Put plainly: proliferation inhibition in MITF-low A375 cells – cell-based, cherry-pick samples, set 2, counter-screen for MITF modulator project, dose response (AID 540335). The class given is functional. The following applies: Homo sapiens. Background: The purpose of a counterscreen is to sort out artefacts and off-target activity.
In assay [2] the target is Polyadenylate-binding protein 1 (Homo sapiens, UniProt P11940). Put plainly: MLLE binding blockers, Cy5 peptide tracer – biochemical, fluorescence polarization, Cy5-PAM2 peptide, secondary, miRNA deadenylation inhibitor project, dose response (AID 602260). In kind it is functional. The following applies: read-out: IC50_Mean.
Chain of Polyadenylate-binding protein 1 (P11940 whole entry): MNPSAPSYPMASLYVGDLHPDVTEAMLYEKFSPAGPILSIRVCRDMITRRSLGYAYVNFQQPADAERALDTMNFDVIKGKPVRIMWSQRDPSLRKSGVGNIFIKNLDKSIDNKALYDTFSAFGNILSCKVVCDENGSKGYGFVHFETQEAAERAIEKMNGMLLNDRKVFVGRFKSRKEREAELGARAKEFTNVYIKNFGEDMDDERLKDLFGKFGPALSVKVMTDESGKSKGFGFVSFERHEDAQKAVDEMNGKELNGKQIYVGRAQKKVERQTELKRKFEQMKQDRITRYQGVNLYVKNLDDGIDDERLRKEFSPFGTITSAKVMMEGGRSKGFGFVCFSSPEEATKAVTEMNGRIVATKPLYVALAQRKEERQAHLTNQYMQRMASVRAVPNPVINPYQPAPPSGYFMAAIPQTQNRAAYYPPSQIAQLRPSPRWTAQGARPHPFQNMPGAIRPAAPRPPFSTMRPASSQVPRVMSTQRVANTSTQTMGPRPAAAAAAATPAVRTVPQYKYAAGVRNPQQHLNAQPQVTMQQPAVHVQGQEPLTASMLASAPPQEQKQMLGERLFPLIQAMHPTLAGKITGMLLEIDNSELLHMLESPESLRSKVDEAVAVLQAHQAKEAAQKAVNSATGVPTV
Assay [3] in a line: Trypanosoma cruzi growth suppression in host cells – NIH3T3 host cells, beta-gal luminescence, confirmation (AID 2044).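 Also: intracellular parasites grown in NIH/3T3 mouse fibroblasts as host cells; luminescent beta-galactosidase reporter signal from transgenic T. cruzi replicating inside host cells; inhibitors lower the luminescence signal.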 The class given is functional, cell-based.
In assay [4] the target is Glucose-6-phosphate 1-dehydrogenase (Homo sapiens, UniProt P11413). Put plainly: inhibition of Homo sapiens G6PD, dose series – biochemical, fluorescence, selectivity assay for P. falciparum G6PD inhibitor project, dose response (AID 504792). The class given is functional.
Chain of Glucose-6-phosphate 1-dehydrogenase (P11413 whole entry): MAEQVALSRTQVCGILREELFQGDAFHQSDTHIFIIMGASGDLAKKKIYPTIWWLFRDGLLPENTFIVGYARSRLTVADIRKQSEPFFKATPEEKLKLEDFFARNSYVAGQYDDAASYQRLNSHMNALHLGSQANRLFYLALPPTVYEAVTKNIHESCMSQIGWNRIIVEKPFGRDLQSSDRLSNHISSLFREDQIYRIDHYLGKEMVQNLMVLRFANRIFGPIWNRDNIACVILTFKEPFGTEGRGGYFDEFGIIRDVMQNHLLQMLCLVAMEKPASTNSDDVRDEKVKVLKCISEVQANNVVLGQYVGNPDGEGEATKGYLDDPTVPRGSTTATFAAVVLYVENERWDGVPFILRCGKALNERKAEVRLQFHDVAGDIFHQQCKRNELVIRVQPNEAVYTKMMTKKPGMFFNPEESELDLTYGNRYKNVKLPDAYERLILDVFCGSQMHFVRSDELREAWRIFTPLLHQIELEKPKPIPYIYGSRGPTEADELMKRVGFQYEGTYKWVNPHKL
The test system of another assay is HEK293. Description: Fluorescence-based counterscreen for potentiators or agonists of NPY-Y2: cell-based high-throughput dose response assay to identify inhibitors of cyclic nucleotide gated ion channel (CNGC) activity. In this assay, the parental HEK293 cell line transfected with a cyclic-nucleotide gated ion channel (CNGC)-based cAMP sensor is used to measure inhibition of isoproterenol-induced CNGC activity by test compound. The settings on record: Homo sapiens. In kind it is functional.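 Also: stimulus is 1 µM isoproterenol at EC100 plus PDE inhibitor Ro 20-1724 at 25 µM.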

Another assay addresses Large T antigen (Simian virus 40, UniProt P03070). Put plainly: A confirmatory biochemical assay using the ADP-Hunter methodology, purified TAg, and ATP to quantify activity of synthesized compounds that inhibit the ATPase activity of Tag (3). [Related pubchem assays (depositor defined):AID1903, AID1909, AID2102, AID2501, AID2615, AID2775, AID435001, AID449729]. Set-up: species or system Betapolyomavirus macacae.

The target in assay [5] is Small ubiquitin-related modifier 2 (Homo sapiens, UniProt P61956). Description: disruption of SUMO2 interaction with SIM peptide – biochemical, fluorescence polarization, uHTS hits, selectivity assay for SUMO1 interaction inhibitor project, dose response (AID 624385). In kind it is functional. The following applies: read-out: IC50_Mean. (Polarisation of emitted light reports the rotation of a fluorescent probe.)
Chain of Small ubiquitin-related modifier 2 (P61956 whole entry): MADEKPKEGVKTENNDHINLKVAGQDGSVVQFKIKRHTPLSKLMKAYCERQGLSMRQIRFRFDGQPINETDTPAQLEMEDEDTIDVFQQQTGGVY

A short description of assay [6]: SNU-C1 cell viability reduction, dose response, CellTiter-Glo luminescence (AID 1117323). In kind it is functional, cell-based. On the technique in general: Cellular ATP, detected with luciferase, serves as a proxy for viable cell number.

Activity calls are given as the source filed them.

Chain of Large T antigen (P03070 whole entry): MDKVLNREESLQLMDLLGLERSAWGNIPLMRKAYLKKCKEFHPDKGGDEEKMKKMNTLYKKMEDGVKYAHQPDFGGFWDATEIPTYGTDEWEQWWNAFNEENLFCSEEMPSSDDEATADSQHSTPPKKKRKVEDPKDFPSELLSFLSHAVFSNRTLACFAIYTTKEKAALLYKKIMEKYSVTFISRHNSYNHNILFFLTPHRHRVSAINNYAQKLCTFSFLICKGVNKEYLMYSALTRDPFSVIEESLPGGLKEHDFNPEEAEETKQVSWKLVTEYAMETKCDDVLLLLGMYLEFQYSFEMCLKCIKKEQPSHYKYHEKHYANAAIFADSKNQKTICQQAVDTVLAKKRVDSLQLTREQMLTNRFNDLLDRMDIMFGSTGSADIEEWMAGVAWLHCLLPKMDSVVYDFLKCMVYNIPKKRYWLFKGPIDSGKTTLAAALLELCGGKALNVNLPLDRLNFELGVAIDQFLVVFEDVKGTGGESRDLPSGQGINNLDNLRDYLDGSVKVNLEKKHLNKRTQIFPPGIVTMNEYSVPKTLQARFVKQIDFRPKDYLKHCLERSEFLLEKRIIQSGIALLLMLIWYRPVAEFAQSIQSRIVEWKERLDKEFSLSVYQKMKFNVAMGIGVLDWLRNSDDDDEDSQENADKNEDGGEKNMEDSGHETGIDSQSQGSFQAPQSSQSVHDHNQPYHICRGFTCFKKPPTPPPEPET

For `N#Cc1c(N2CCCCC2)nc(N)c2c(N)nc(SCC(=O)O)cc12`, the IC50 was 33.7 µM (active) on Caspase-3 and 8.26 µM (active) in assay [1].

Consider `O=[N+]([O-])c1ccc(Sc2cccc[n+]2[O-])c2nonc12`, for which, at Caspase-6, the AC50 is 7.21 µM (active).

Turning to `CC1(C)Cc2ccccc2C2=NNC(=O)C2=N1`, the AC50 in the assay with A-375 is 35.3 µM (active).

`Oc1ccc(NC(=S)N=Nc2c(O)[nH]c3ccccc23)cc1`: the IC50 in assay [2] is > 66 µM (inactive). As for `CCCC(=O)NC(c1ccc(C(C)C)cc1)c1ccc2cccnc2c1O` (stereo unspecified), the EC50 in assay [3] was 0.227 µM (active).

Consider `CCc1ccc(S(=O)(=O)Nc2cc(SCC(=O)O)c(O)c3ccccc23)cc1`, for which the IC50 in assay [4] is 50 µM (inactive). Regarding `Oc1c(Cl)cc(Cl)c(Cl)c1Cc1c(O)c(Cl)cc(Cl)c1Cl` [HEXACHLOROPHENE], in the assay on HEK293, the EC50 is > 11.8 µM (not active). Also, the IC50 on Large T antigen is 34.5 µM (active); in [5], 8.49 µM (active); in [6] it was 0.032 µM (active).
